Laboratory results: US20230404963A1, “COMBINATIONS OF METAP2 INHIBITORS AND CD4/6 INHIBITORS FOR THE TREATMENT OF CANCER” (SynDevRx, Inc., priority 2020, published 2023)

Tested on: MCF-7 tumors
Experiment: Tumor Growth Inhibition in mice bearing MCF-7 tumors treated with Compound 1 and/or ribociclib
Type: in vivo
Experimental: In the following experiment, mice bearing MCF-7 tumors were treated with either a vehicle control, Compound 1 alone, ribociclib alone, or with a combination of Compound 1 and ribociclib. MCF-7 were cultured in DMEM supplemented with 10% FBS. On the day of implantation, cells were washed 1× with phosphate-buffered saline (PBS). Following washing, cells were pelleted (5 min @ 1000 rpm, RT) and then counted with a hemocytometer. A cell concentration of 5×10^6 per mouse was re-suspended in an appropriate amount of PBS and 1:1 Matrigel. The suspension was kept on ice until implantation. Forty-eight hours prior to cell implantation, a 17-β estradiol pellet (0.36 mg 60-day slow release pellet) was be implanted subcutaneously between the scapulae of each Female Nu/j mouse. […] Once anesthetized, the mice were positioned ventral side up and anesthesia maintained through a fitted nose cone. The MCF-7 cell suspension was injected into the mammary fat pad at a volume of 100 μl containing 5×10^6 cells per mouse. Beginning 5 days post cell implantation, tumors were measured two times weekly (length×width) using a wireless digital calipers in conjunction with UWAVE-R to record measurements. […] The first day of treatment was designated “Day 1”. The mice were dosed either subcutaneously (SC), orally (PO), or by both dose routes, as put forth in the experimental designed summarized in Table 3. Doses were calculated by individual body weights. [table] The first group of mice (Group #1) were administered the vehicle control by oral administration once a day (QD). […] The fifth group of mice (Group #5) were administered Ribociclib at a dose of 35 mg/kg by oral administration once a day (QD). The sixth group of mice (Group #6) were administered Ribociclib at a dose of 70 mg/kg by oral administration once a day (QD). Twice weekly body weights and tumor measurements were recorded for the duration of the study. […] Upon euthanasia, a maximum volume terminal blood sample was obtained via cardiac puncture and split 200 μL in a K2EDTA MiniCollect tube for plasma separation and 420 μL in to a MiniCollect serum separator tube for half the mice for Clinical Chemistry analysis. For the other half of the mice, >200 μL of blood was collected in to K2EDTA MiniCollect tubes (LTT) for CBC analysis. The MiniCollect blood tubes for both plasma and serum were centrifuged at 8000 rpm for 5 minutes. The plasma was retained for biomarker analysis at −80° C., the serum and whole blood (LTT) were further analyzed. Additionally, tumor from the mice were dissected, weighed, and split into two pieces. Half of the tumor was placed into buffered formalin and stored at room temperature. Half of the tumor was snap-frozen in liquid N2, and stored at −80° C. […]

`CN(C)C(=O)c1cc2cnc(Nc3ccc(N4CCNCC4)cn3)nc2n1C1CCCC1` [Ribociclib, ribociclib] showed a TGI % (day 14, Group 5: Ribociclib 35 mg/kg PO QD) of 57%, a TGI % (day 14, Group 6: Ribociclib 70 mg/kg PO QD) of 70% and a TGI % (day 18, Group 5: Ribociclib 35 mg/kg PO QD (10 times the dose on day 16)) of 60%. The TGI % (day 18, Group 6: Ribociclib 70 mg/kg PO QD (10 times the dose on day 16)) was 70%.
